According to patent publication US20240409584A1, “PEPTIDE HAVING ANTI-AGING ACTIVITY, AND USE THEREOF” (CAREGEN CO., LTD., priority 2021, published 2024):

Columns and labels:
[1] = test system: AQP3; assay: AQP3 gene expression in keratinocytes, RT-PCR; type: cell-based; conditions: HaCaT cells, peptide 10, 50, 100 μM, 24 hours; FIGS. 2A, 2B
Method: (§1) First, HaCaT cells were seeded in a 6-well plate at a cell density of 3×10^5 cell/well, and then the cells were cultured in DMEM medium containing 10% fetal bovine serum (FBS) for 24 hours. The cultured cells were washed once with serum free DMEM medium, and then the peptide of the present invention was mixed in 1 mL of the serum free DMEM medium at each of concentrations of 10, 50, and 100 μM, and dispensed into the cells. A positive control (PC) was treated with 100 nM of EGF instead of the above peptide. The cells were cultured in a CO: incubator at 37° C. for 24 hours.
(§2) The cultured cells were washed twice with PBS, and then RNA was extracted from the cells using easy blue (iNtRON, Cat. No.: 17061, Korea). The extracted RNA was subjected to RT reaction using a kit (enzynomics, Cat. No.: RT200, Korea). Thereafter, RT-PCR was performed using a PCR kit (enzynomics, Cat. No.: R581T, Korea). The sequences of the primers of AQP3 and SIRT1 used in RT-PCR and the sequence of the primer of GAPDH used to compare the total RNA amount of each treatment group are shown in [Table 2].

[2] = test system: MMP-9; assay: MMP-9 activity increased by UV in keratinocytes, gelatin zymography; type: cell-based; conditions: keratinocytes (HaCaT), 15 mJ/cm^2 UVB, peptide 10, 50, 100 μM, 6 hours after irradiation; FIG. 6B
[3] = test system: SIRT1; assay: SIRT1 gene expression in keratinocytes, RT-PCR; type: cell-based; conditions: HaCaT cells, peptide 10, 50, 100 μM, 24 hours; FIGS. 2A, 2C
Method: as §1, §2

[4] = test system: MMP-2; assay: MMP-2 activity increased by UV in fibroblasts, gelatin zymography; type: cell-based, mouse; conditions: fibroblasts (NIH3T3), 6 J/cm^2 UVA, peptide 10, 50, 100 μM, 6 hours after irradiation; FIG. 6A
[5] = test system: fibronectin; assay: Fibronectin gene expression in fibroblasts, RT-PCR; type: cell-based, mouse; conditions: NIH3T3 cells, peptide 10, 50, 100 μM, 24 hours, serum free DMEM; FIGS. 1A, 1C
Method: (§3) First, NIH3T3 cells (mouse fibroblast cell line) were seeded in a 6-well plate at a cell density of 3×10^5 cell/well, and then the cells were cultured in DMEM medium containing 10% fetal bovine serum (FBS) for 24 hours. The cultured cells were washed once with serum free DMEM medium, and the peptide of the present invention was mixed in 1 mL of the serum free DMEM medium at each of concentrations of 10, 50, and 100 μM, and dispensed into the cells. A positive control (PC) was treated with 5 ng/ml of TGF-B instead of the above peptide. The cells were cultured in a CO: incubator at 37° C. for 24 hours.
(§4) The cultured cells were washed twice with PBS, and RNA was extracted from the cells using easy blue (iNtRON, Cat. No.: 17061, Korea). The amount of RNA extracted was quantified, 1, 000 ng of RNA was added per tube, and RT reaction was performed using a kit (enzynomics, Cat. No.: PT200, Korea). RT-PCR was performed using a PCR kit (enzynomics, Cat. No.: P581T, Korea). The sequences of the primers of collagen, fibronectin, and elastin used in RT-PCR and the sequence of the primer of GAPDH used to compare the total RNA amount of each treatment group are shown in [Table 2].

[6] = test system: Col1a1; assay: Col1a1 (collagen) gene expression in fibroblasts, RT-PCR; type: cell-based, mouse; conditions: NIH3T3 cells, peptide 10, 50, 100 μM, 24 hours, serum free DMEM; FIGS. 1A, 1B
Method: as §3, §4

[7] = test system: NIH3T3 cells; assay: Intracellular ROS increased by UVA irradiation, DCFH-DA/FACS; type: cell-based, mouse; conditions: 8 J/cm^2 UVA, peptide 10, 50, 100 μM, 24 hours after irradiation, FIG. 3A
Method: (§5) First, NIH3T3 cells and HaCaT cells were seeded in a 6-well plate at a cell density of 5×10^5 cell/well, respectively, and then the cells were cultured in DMEM medium containing 10% fetal bovine serum (FBS) for 24 hours. The cultured cells were washed once with serum free DMEM medium, and then the peptide of the present invention was mixed in 1 mL of the serum free DMEM medium at each of concentrations of 10, 50, and 100 μM, and dispensed into the cells. A positive control (PC) was treated with 50 μM of Trolox instead of the above peptide.
(§6) The cells were cultured in a CO2 incubator at 37° C. for 1 hour. The medium of the cultured cells was transferred to a tube, 1 ml of PBS was added, and then the NIH3T3 cells were irradiated with 8 J/cm^2 of UVA and the HaCaT cells were irradiated with 15 mJ/cm^2 of UVB using a UV irradiator (VILBER LOURMAT, Cat No.: 3102-BSU, France). After removing PBS, 900 μL of the medium transferred to the tube was dispensed, and culture was performed in a CO2 incubator at 37° C. for 24 hours. After treatment with 10 μM of dichloro-dihydro-fluorescein diacetate (DCFH-DA), wrapping with a foil was performed, and culture was performed in a CO2 incubator at 37° C. for 30 minutes. […] After centrifugation, the cells were washed with PBS, and a fluorescence value was measured through FACS.

[8] = test system: Colla1; assay: Col1a1 gene expression decreased by UV in fibroblasts, RT-PCR; type: cell-based, mouse; conditions: NIH3T3 cells, 6 J/cm^2 UVA, peptide 10, 50, 100 μM, 6 hours after irradiation; FIGS. 4A, 4B
Method: as §5, with “First, NIH3T3 cells were” for “First, NIH3T3 cells and HaCaT cells were”, “5×10^5 cell/well, and then” for “5×10^5 cell/well, respectively, and then”, “treated with 2.5 mM of N-acetylcysteine or 50 μM” for “treated with 50 μM”, “above peptide. The cells were cultured in a CO: incubator at 37° C. for 1 hour.” for “above peptide.”
(§7) The medium of the cultured cells was transferred to a tube (e-tube), 1 ml of PBS was added, and irradiation was performed with 6 J/cm^2 of UVA using a UV irradiator (VILBER LOURMAT, Cat No.: 3102-BSU, France). After removing PBS, 900 μL of the medium transferred to the tube was dispensed, and culture was performed in a CO2 incubator at 37° C. for 6 hours. The cultured cells were washed twice with PBS, and then RNA was extracted from the cells using easy blue (iNtRON, Cat. No.: 17061, Korea). The amount of RNA extracted was quantified, 1,000 ng of RNA was added per tube, and RT reaction was performed using a kit (enzynomics, Cat. No.: RT200, Korea). Thereafter, RT-PCR was performed using a PCR kit (enzynomics, Cat. No.: R581T, Korea). […]

[9] = test system: elastin; assay: Elastin gene expression in fibroblasts, RT-PCR; type: cell-based, mouse; conditions: NIH3T3 cells, peptide 10, 50, 100 μM, 24 hours, serum free DMEM; FIGS. 1A, 1D
Method: as §3, §4

[10] = test system: MMP-1; assay: MMP-1 expression increased by UV in fibroblasts, western blot; type: cell-based, mouse; conditions: NIH3T3 cells, 6 J/cm^2 UVA, peptide 10, 50, 100 μM, 24 hours after irradiation; FIG. 5A
Method: (§8) First, NIH3T3 cells and HaCaT cells were seeded in a 6-well plate at a cell density of 5×10^5 cell/well, respectively, and then the cells were cultured in DMEM medium containing 10% fetal bovine serum (FBS) for 24 hours. The cultured cells were washed once with serum free DMEM medium, and the peptide of the present invention was mixed in 1 mL of the serum free DMEM medium at each of concentrations of 10, 50, and 100 μM, and dispensed into the cells. A positive control (PC) was treated with 25 and 50 µM of Trolox instead of the above peptide.
(§9) The cells were cultured in a CO2 incubator at 37° C. for 1 hour. The medium of the cultured cells was transferred to a tube (e-tube), 1 ml of PBS was added, and then the NIH3T3 cells were irradiated with 6 J/cm^2 of UVA and the HaCaT cells were irradiated with 15 mJ/cm^2 of UVB using a UV irradiator (VILBER LOURMAT, Cat No.: 3102-BSU, France). After removing PBS, 900 μL of the medium transferred to the tube was added, and culture was performed in a CO2 incubator at 37° C. for 24 hours. The medium of the cultured cells was transferred to a tube, the cells were washed twice with PBS, and then a cell lysis buffer was added to lyse the cells. A sample was prepared by treating the cells with 5× sample buffer, and then SDS-PAGE was performed using 10% SDS-PAGE gel. The proteins isolated through SDS-PAGE were transferred to a PVDF membrane. […]

[11] = test system: HaCaT cells; assay: Intracellular ROS increased by UVB irradiation, DCFH-DA/FACS; type: cell-based; conditions: 15 mJ/cm^2 UVB, peptide 10, 50, 100 μM, 24 hours after irradiation, FIG. 3B
Method: as §5, §6

[12] = test system: MMP-1; assay: MMP-1 expression increased by UV in keratinocytes, western blot; type: cell-based; conditions: HaCaT cells, 15 mJ/cm^2 UVB, peptide 10, 50, 100 μM, 24 hours after irradiation; FIG. 5B
Method: as §8, §9

[13] = test system: fibronectin; assay: Fibronectin gene expression decreased by UV in fibroblasts, RT-PCR; type: cell-based, mouse; conditions: NIH3T3 cells, 6 J/cm^2 UVA, peptide 10, 50, 100 μM, 6 hours after irradiation; FIGS. 4A, 4C
Method: as §5, with “First, NIH3T3 cells were” for “First, NIH3T3 cells and HaCaT cells were”, “5×10^5 cell/well, and then” for “5×10^5 cell/well, respectively, and then”, “treated with 2.5 mM of N-acetylcysteine or 50 μM” for “treated with 50 μM”, “above peptide. The cells were cultured in a CO: incubator at 37° C. for 1 hour.” for “above peptide.”
as §7

Sequence: DSSPLRSPSYAS [SEQ ID NO: 1]
- mRNA level of AQP3 [1]: increased
- activity of MMP-9 protein increased by ultraviolet rays [2]: inhibited
- mRNA level of SIRT1 [3]: increased
- activity of MMP-2 protein increased by ultraviolet rays [4]: inhibited
- expression of the fibronectin gene [5]: gradually increased as a concentration of the peptide increased
- expression of the collagen gene [6]: gradually increased as a concentration of the peptide increased
- intracellular reactive oxygen species level increased by UV irradiation [7]: decreased
- mRNA level of Colla1 decreased by UV irradiation [8]: increased again
- expression of the elastin gene [9]: gradually increased as a concentration of the peptide increased
- expression of MMP-1 increased by UV irradiation [10]: inhibited
- intracellular reactive oxygen species level increased by UV irradiation [11]: decreased
- expression of MMP-1 increased by UV irradiation [12]: inhibited
- mRNA level of fibronectin decreased by UV irradiation [13]: increased again
